{"source": "patent US12129488B2", "about": "“Production of brown adipocytes” (SOCIETE DES PRODUITS NESTLE S.A., priority 2018, dated 2024)", "key": {"[1]": {"test_system": "human brown adipocytes (hiPSC derived BA cells)", "experiment": "PET-SCAN imaging of labelled glucose in explanted devices from mice implanted with encapsulated human brown adipocytes", "format": "in vivo", "settings": "mice implanted with brown adipocytes and injected with FSK vs not stimulated; three weeks post-implantation", "method": "Two groups of mice were implanted with human brown adipocytes (hiPSC derived BA cells) produced by the methods of the present invention and encapsulated in a device subcutaneously. In one group, the mice were injected with forskolin (FSK) to stimulate the brown adipocytes. In the other group, the mice implanted with brown adipocytes were not stimulated by FSK. A control group of mice was implanted with an empty device. All groups were assessed after three weeks post-implantation for in vivo PET-SCAN imaging as well as ex vivo PET-SCAN imaging of the explanted device."}, "paraxial mesoderm cells": {"test_system": "paraxial mesoderm cells", "experiment": "Brown adipocyte differentiation of dissociated paraxial mesoderm cells in BAD1/BAD2 medium", "format": "cell-based, human", "settings": "SB431542 included in BAD1 medium, 2D culture of dissociated paraxial mesoderm cells", "method": "Proceeding from monolayer of pluripotent stem cells (PSC) to spherical culture (Sph) to primitive streak (PS) to paraxial mesoderm (PM). Cells are then dissociated and cultured in 2D in specific BAD1 medium that contains TGFβ signalling inhibitor, SB431542 which is an activin inhibitor. […] In a second step, cells are cultured in BAD2 medium allowing TGFβ signalling to be active as SB431542 is removed.\n(§1) Brown adipocyte (BA) differentiation was accomplished using two sequential media formulations designated BAD1 and BAD2. BAs were derived by first dissociating the PM spheres into single-cell suspension. Briefly, PM spheres were removed from the suspension plates and allowed to gravity sediment in a conical tube. The medium was aspirated carefully and the spheres gently washed once with excess DPBS without calcium or magnesium. The spheres were allowed to settle and the DPBS aspirated. The spheres were resuspended in 5 mL of RT Accumax® (Innovative Cell Technologies, San Diego, CA) and placed on a single speed rotating mixer for 20-30 minutes until a single-cell suspension was achieved. The cells were subsequently filtered through a 100 μm filter (ThermoFisher, Waltham, MA) into a 50 mL conical tube, washed with DPBS and centrifuged at 200 g for 4 minutes at RT; the resulting supernatant was aspirated and the cells resuspended in BAD1 medium for counting using a haemocytometer. […]"}, "UCP1": {"test_system": "UCP1", "experiment": "UCP1 expression analysis (qPCR), long term versus short term SB431542 exposure during BA differentiation", "format": "cell-based, human", "settings": "continued use of SB431542 instead of removal in BAD2 medium", "method": "UCP1 expression analysis between long term (+SB) or short term (−SB) SB431542 exposure. Long term SB exposure includes SB431542 in the medium during the entire BA differentiation beginning immediately after plating dissociated paraxial mesoderm cells. Short term SB exposure includes SB431542 in the medium during only the first 8 days beginning immediately after plating dissociated paraxial mesoderm cells. Those samples marked “+FSK” received 10 μM Forskolin for 4 hours. Day numbers are the number of days after paraxial mesoderm differentiation. All samples are relative to iPSC using 18S rRNA as the endogenous control.\nas §1, with “achieved.” for “achieved. The cells were subsequently filtered through a 100 μm filter (ThermoFisher, Waltham, MA) into a 50 mL conical tube, washed with DPBS and centrifuged at 200 g for 4 minutes at RT; the resulting supernatant was aspirated and the cells resuspended in BAD1 medium for counting using a haemocytometer.”"}, "[2]": {"test_system": "human BA cells (hiPSC derived brown adipocytes)", "experiment": "Calorimetric/respiration measurements in mice implanted with human BA cells after NE stimulation", "format": "in vivo", "settings": "implanted with human BA cells vs empty devices, one week post-implantation", "experimental": "Measures of respiration quotient (DeltaVO2) of mice implanted with human BA cells (IBAT) or empty devices (EMPTY) treated with Norepinephrine (NE) for 1 hour. The mice are either surgically depleted for endogenous murine BA tissue (BATr) or treated at thermo-neutrality to inactivate the endogenous murine BA tissue (Therm). Calorimetric analyses were performed on group of mice implanted with encapsulated human brown adipocytes or empty devices. One group of mice was depleted of endogenous murine BA tissue by surgery and another group was maintained at thermoneutrality for inactivation of the endogenous murine BA tissue. The two groups were implanted with either human BA cells (hiPSC derived brown adipocytes) or empty devices. After one week post-implantation, each group of mice was stimulated with Norepinephrine (NE) (BA stimulation) to assess uncoupled respiration increase. The four sub-groups were analysed for calorimetry measurements as a readout of the respiration index induced by human brown adipocytes."}}}
{"compound": "C=C[C@@]1(C)CC(=O)[C@]2(O)[C@@]3(C)[C@@H](O)CCC(C)(C)[C@@H]3[C@H](O)[C@H](OC(C)=O)[C@@]2(C)O1", "note": "[FSK, forskolin]", "values": [{"measurement": "signal of labelled glucose, PET-SCAN imaging ex vivo", "setting": "[1]", "result": "increased signal of labelled glucose"}]}
{"compound": "NC(=O)c1ccc(-c2nc(-c3ccc4c(c3)OCO4)c(-c3ccccn3)[nH]2)cc1", "note": "[SB431542]", "values": [{"measurement": "appearance of vascular endothelium and cardiac myocyte development from contaminating lateral plate mesoderm", "setting": "paraxial mesoderm cells", "result": "reduces appearance of vascular endothelium and cardiac myocyte development"}, {"measurement": "kinetics of differentiation and UCP1 induction and expression", "setting": "UCP1", "result": "retards proper kinetics and perturbs proper UCP1 induction and expression"}]}
{"compound": "NC[C@H](O)c1ccc(O)c(O)c1", "note": "[NE, Norepinephrine]", "values": [{"measurement": "respiration index (calorimetry)", "setting": "[2]; mice at thermoneutrality", "result": "slightly but not significantly improved"}, {"measurement": "respiration index (calorimetry)", "setting": "[2]; mice surgically depleted of endogenous murine BA tissue", "result": "significant increased respiration index"}]}
